From the NIST ThermoML archive (doi:10.1016/j.jct.2018.08.005)

Experiment: xn = mol fraction of the nth substance listed
Details: Liquid, Vibrating tube method

CCOC(F)(C(F)(F)C(F)(F)C(F)(F)F)C(F)(C(F)(F)F)C(F)(F)F (stereo not given) [2-trifluoromethyl-3-ethoxydodecafluorohexane] + CC(C)OC(C)C
mass density [kg/m3]
Details	x1 = 0.25	x1 = 0.375	x1 = 0.5	x1 = 0.625	x1 = 0.75
363.15 K, 70000 kPa	1074.1	1203	1317.5	1418.6	1507
363.15 K, 80000 kPa	1085.2	1215.5	1330.8	1432.6	1521.5
363.15 K, 90000 kPa	1095.5	1227	1343.1	1445.6	1534.9
363.15 K, 100000 kPa	1105.1	1237.5	1354.5	1457.8	1547.4
363.15 K, 110000 kPa	1114.2	1247.5	1365.3	1469.1	1559.3
363.15 K, 120000 kPa	1122.7	1257.1	1375.4	1479.8	1570.4
363.15 K, 130000 kPa	1130.7	1265.9	1385	1490	1580.9
363.15 K, 140000 kPa	1138.4	1274.6	1394.2	1499.7	1591
373.15 K, 10000 kPa	957.5	1074	1179.6	1272.3	1355.8
373.15 K, 20000 kPa	983.8	1103.6	1210.9	1305.3	1389.8
373.15 K, 30000 kPa	1005	1127.2	1236	1331.8	1417.3
373.15 K, 40000 kPa	1022.8	1147.1	1257.2	1354.2	1440.5
373.15 K, 50000 kPa	1038.4	1164.3	1275.8	1373.8	1460.8
373.15 K, 60000 kPa	1052.3	1179.7	1292.2	1391.2	1478.9
373.15 K, 70000 kPa	1064.8	1193.7	1307.2	1407	1495.3
373.15 K, 80000 kPa	1076.3	1206.4	1320.8	1421.5	1510.3
373.15 K, 90000 kPa	1086.9	1218.3	1333.5	1435	1524.3
373.15 K, 100000 kPa	1096.9	1229.2	1345.3	1447.4	1537.2
373.15 K, 110000 kPa	1106.1	1239.6	1356.2	1459.1	1549.4
373.15 K, 120000 kPa	1114.8	1249.3	1366.6	1470.1	1560.8
373.15 K, 130000 kPa	1123.1	1258.3	1376.4	1480.5	1571.6
373.15 K, 140000 kPa	1130.8	1267	1385.7	1490.4	1581.8
383.15 K, 10000 kPa	942.8	1058	1162.6	1254.2	1336.7
383.15 K, 20000 kPa	971.3	1089.6	1196.3	1289.7	1373.1
383.15 K, 30000 kPa	993.8	1114.7	1223	1317.8	1402
383.15 K, 40000 kPa	1012.6	1135.6	1245.4	1341.5	1426.5
383.15 K, 50000 kPa	1028.9	1153.6	1264.7	1361.9	1447.6
383.15 K, 60000 kPa	1043.2	1169.5	1281.8	1379.9	1466.4
383.15 K, 70000 kPa	1056.2	1184	1297.2	1396.3	1483.3
383.15 K, 80000 kPa	1068.1	1197.2	1311.3	1411.4	1498.8
383.15 K, 90000 kPa	1079	1209.3	1324.3	1425	1513.1
383.15 K, 100000 kPa	1089.2	1220.6	1336.3	1437.8	1526.4
383.15 K, 110000 kPa	1098.7	1231.2	1347.6	1449.8	1538.8
383.15 K, 120000 kPa	1107.7	1241.3	1358.3	1461.2	1550.7
383.15 K, 130000 kPa	1116.1	1250.6	1368.1	1471.8	1561.7
383.15 K, 140000 kPa	1124.2	1259.6	1377.9	1481.9	1572.3
393.15 K, 10000 kPa	927.9	1041.6	1145.1	1235.9	1317.8
393.15 K, 20000 kPa	958.4	1075.7	1181.2	1273.8	1356.7
393.15 K, 30000 kPa	982.1	1102.2	1209.4	1303.4	1387.3
393.15 K, 40000 kPa	1001.8	1124	1232.7	1328	1412.8
393.15 K, 50000 kPa	1018.7	1142.7	1252.8	1349.1	1434.8
393.15 K, 60000 kPa	1033.7	1159.3	1270.5	1368	1454.2
393.15 K, 70000 kPa	1047.2	1174.3	1286.5	1385.1	1471.7
393.15 K, 80000 kPa	1059.3	1187.7	1300.8	1400.3	1487.5
393.15 K, 90000 kPa	1070.8	1200.4	1314.4	1414.7	1502.4
393.15 K, 100000 kPa	1081.3	1211.9	1326.8	1428	1516
393.15 K, 110000 kPa	1091	1222.8	1338.4	1440.1	1528.7
393.15 K, 120000 kPa	1100.3	1233	1349.4	1451.6	1540.7
393.15 K, 130000 kPa	1108.9	1242.6	1359.7	1462.5	1552.1
393.15 K, 140000 kPa	1117	1251.6	1369.3	1472.9	1562.7
